According to patent publication US9783536B2, “Nitrogen-containing heterocyclic compound or salt thereof” (FUJIFILM Corporation, priority 2013, dated 2017):
Read-outs that look alike come from different tables or passages of the source.

Key:
human PI3Kα protein = molecular target: T1, human PI3Kα protein (Homo sapiens, UniProt P42336); assay: PI3Kα enzyme assay (ADP-Glo); type: biochemical; settings: read-out: PI3Kα enzyme inhibitory activity
T1 construct: purchased Carna Biosciences, Inc; host or cells: baculovirus expression system
T1 sequence (P42336 whole entry): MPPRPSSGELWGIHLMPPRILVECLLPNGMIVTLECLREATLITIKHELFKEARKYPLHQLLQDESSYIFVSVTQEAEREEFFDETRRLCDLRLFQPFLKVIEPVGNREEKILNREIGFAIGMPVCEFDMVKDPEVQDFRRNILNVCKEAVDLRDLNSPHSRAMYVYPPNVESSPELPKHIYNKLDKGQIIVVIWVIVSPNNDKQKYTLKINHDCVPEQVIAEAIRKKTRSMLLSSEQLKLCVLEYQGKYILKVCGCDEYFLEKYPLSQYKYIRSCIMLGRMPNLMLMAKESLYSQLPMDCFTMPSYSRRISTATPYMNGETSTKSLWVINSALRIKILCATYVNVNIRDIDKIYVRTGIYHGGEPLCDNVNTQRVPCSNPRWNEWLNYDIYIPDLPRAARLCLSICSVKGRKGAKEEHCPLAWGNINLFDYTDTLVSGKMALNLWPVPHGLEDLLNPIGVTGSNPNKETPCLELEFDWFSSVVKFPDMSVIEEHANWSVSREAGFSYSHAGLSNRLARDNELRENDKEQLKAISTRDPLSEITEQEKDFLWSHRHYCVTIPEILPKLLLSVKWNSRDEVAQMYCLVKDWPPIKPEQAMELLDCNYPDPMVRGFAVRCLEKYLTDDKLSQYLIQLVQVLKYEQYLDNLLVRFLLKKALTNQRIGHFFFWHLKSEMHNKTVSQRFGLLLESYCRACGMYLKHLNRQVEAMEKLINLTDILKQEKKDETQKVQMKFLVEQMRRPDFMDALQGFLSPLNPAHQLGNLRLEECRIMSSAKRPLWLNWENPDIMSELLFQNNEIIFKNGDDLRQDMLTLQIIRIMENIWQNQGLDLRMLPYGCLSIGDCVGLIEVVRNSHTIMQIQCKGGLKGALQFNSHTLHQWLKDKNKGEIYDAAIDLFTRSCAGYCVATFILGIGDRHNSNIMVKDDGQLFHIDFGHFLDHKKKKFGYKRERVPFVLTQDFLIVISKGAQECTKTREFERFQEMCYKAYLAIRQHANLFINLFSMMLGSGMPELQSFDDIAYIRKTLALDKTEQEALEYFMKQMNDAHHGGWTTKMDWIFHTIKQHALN
T1 sequence (P27986 whole entry partner): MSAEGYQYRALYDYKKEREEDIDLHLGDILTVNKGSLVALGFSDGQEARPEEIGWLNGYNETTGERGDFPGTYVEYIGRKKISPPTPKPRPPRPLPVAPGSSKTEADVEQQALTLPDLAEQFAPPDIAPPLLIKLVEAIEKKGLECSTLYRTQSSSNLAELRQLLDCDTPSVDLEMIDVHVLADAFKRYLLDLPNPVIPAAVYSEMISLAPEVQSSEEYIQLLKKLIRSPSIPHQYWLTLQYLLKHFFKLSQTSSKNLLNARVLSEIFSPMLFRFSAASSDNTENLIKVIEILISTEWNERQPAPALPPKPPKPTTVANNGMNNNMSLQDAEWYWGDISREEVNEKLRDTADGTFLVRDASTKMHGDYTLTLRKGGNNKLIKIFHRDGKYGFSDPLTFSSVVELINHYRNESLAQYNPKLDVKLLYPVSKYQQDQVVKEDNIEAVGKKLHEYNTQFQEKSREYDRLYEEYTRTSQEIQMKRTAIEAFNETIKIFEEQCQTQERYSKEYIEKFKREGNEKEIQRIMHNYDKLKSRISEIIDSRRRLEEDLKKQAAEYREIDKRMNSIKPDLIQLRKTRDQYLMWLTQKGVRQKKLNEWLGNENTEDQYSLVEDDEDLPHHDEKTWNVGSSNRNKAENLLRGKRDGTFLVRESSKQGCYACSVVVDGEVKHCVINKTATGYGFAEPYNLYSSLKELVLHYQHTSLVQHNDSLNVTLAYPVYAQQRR
Summary of the method: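 Biotinylated human PI3Kα (baculovirus-expressed, 4.5 nmol/L) pre-incubated 15 min with compound in Tris-HCl pH 7.5, MgCl2, BSA; reaction 60 min at 25° C with 50 μmol/L PIP2 and 100 μmol/L ATP final. ADP quantified by ADP-Glo luminescence; IC50 calculated.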

[1] = molecular target: T2, GST fusion human ERK2 protein (Homo sapiens, UniProt P28482); assay: ERK2 enzyme assay (2); type: biochemical; settings: read-out: ERK2 enzyme inhibitory activity (2)
T2 construct: purchased Carna Biosciences, Inc; host or cells: E. coli expression system
T2 sequence (P28482 whole entry, the tested form may be a part): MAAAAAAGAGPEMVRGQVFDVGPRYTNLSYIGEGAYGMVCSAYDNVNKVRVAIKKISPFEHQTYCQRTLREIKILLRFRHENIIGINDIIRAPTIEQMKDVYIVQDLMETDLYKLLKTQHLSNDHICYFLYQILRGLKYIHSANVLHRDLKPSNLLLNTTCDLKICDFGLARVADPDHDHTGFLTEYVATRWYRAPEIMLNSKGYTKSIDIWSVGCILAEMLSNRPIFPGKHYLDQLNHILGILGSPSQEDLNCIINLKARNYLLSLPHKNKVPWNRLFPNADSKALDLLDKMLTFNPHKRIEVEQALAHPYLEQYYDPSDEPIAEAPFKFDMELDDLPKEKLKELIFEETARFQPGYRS
Summary of the method: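 IC50 values come from mobility-shift measurement of phosphorylated versus unphosphorylated 5-FAM peptide substrate after EDTA quench. Beforehand, compound and 1.25 nmol/L E. coli-expressed GST–human ERK2 stood 15 min at room temperature (pH 7.5), then 1 mmol/L ATP and 4.25 μmol/L substrate (final) were added for 120 min at 25 °C.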

SMILES | IC50 (human PI3Kα protein) [nM] | IC50 ([1]; ERK2 enzyme assay (2)) [nM] | IC50 [1] [nM]
Cc1c(-c2cnn(C)c2)cnc2ccc(Nc3cc(C(C)C)cnn3)nc12 [Example 0850, N-(5-isopropylpyridazin-3-yl)-8-methyl-7-(1-methyl-1H-pyrazol-4-yl)-1,5-naphthyridine-2-amine] | < 1000 | < 1000 | 
Cc1nc2ccc(Nc3cc(C(C)C)cnn3)nc2cc1-c1cn(C)nc1C [Example 0851, 7-(1,3-Dimethyl-1H-pyrazol-4-yl)-N-(5-isopropylpyridazin-3-yl)-6-methyl-1,5-naphthyridine-2-amine] | 1000 to 10000 | < 1000 | 
Cc1nn(C)cc1-c1cnc2ccc(Nc3cc(C(C)C)cnn3)nc2c1C [Example 0852, 7-(1,3-Dimethyl-1H-pyrazol-4-yl)-N-(5-isopropylpyridazin-3-yl)-8-methyl-1,5-naphthyridine-2-amine] | < 1000 | < 1000 | 
COC1CN(c2cnc3ccc(Nc4cc(C(C)C)cnn4)nc3c2)C1 [Example 0853] | < 1000 | < 1000 | 
CC(C)c1cnnc(Nc2ccc3ncc(N4CC(F)(F)C4)cc3n2)c1 [Example 0854] | < 1000 | < 1000 | 
CC(C)c1cnnc(Nc2ccc3ncc(N4CC5(COC5)C4)cc3n2)c1 [Example 0855] | < 1000 | < 1000 | 
CC(C)c1cnnc(Nc2ccc3ncc(N4CC5(CCO5)C4)cc3n2)c1 [Example 0856] | 1000 to 10000 | < 1000 | 
CC(C)c1cnnc(Nc2ccc3ncc(N4CCS(=O)(=O)CC4)cc3n2)c1 [Example 0857] | 1000 to 10000 | < 1000 | 
CC(C)c1cnnc(Nc2ccc3ncc(N4CCC(F)(F)CC4)cc3n2)c1 [Example 0858] | 1000 to 10000 | < 1000 | 
COC1(C)CN(c2cnc3ccc(Nc4cc(C(C)C)cnn4)nc3c2)C1 [Example 0859] | 1000 to 10000 | < 1000 | 
CC(C)c1cnnc(Nc2ccc3ncc(N4CC(Oc5ccccc5)C4)cc3n2)c1 [Example 0860] | 1000 to 10000 | 1000 to 10000 | 
CC(C)c1cnnc(Nc2ccc3ncc(N4CCN(S(C)(=O)=O)CC4)cc3n2)c1 [Example 0861] | < 1000 | < 1000 | 
CC(C)c1cnnc(Nc2ccc3ncc(N4CCC(=O)N(C)CC4)cc3n2)c1 [Example 0862] | < 1000 | < 1000 | 
CC(C)OC1CN(c2cnc3ccc(Nc4cc(C(C)C)cnn4)nc3c2)C1 [Example 0863] | 1000 to 10000 | < 1000 | 
CC(C)c1cnnc(Nc2ccc3ncc(N4CC(OCCF)C4)cc3n2)c1 [Example 0864] | < 1000 | < 1000 | 
CC(C)c1cnnc(Nc2ccc3ncc(N4CC(OCC(F)(F)F)C4)cc3n2)c1 [Example 0865] | 1000 to 10000 | 1000 to 10000 | 
CC(C)c1cnnc(Nc2ccc3ncc(N4CC(NS(C)(=O)=O)C4)cc3n2)c1 [Example 0867] | < 1000 | < 1000 | 
CC(C)c1cnnc(Nc2ccc3ncc(N4CC(OCC(F)F)C4)cc3n2)c1 [Example 0868] | 1000 to 10000 | < 1000 | 
CC(C)c1cnnc(Nc2ccc3ncc(N4CC(OCC5CC5)C4)cc3n2)c1 [Example 0869] | 1000 to 10000 | < 1000 | 
CCCCOC1CN(c2cnc3ccc(Nc4cc(C(C)C)cnn4)nc3c2)C1 [Example 0870] | 1000 to 10000 | 1000 to 10000 | 
CC(C)c1cnnc(Nc2ccc3ncc(N4CCCN(C)CC4)cc3n2)c1 [Example 0871] | 1000 to 10000 | 1000 to 10000 | 
CC(=O)N1CCN(c2cnc3ccc(Nc4cc(C(C)C)cnn4)nc3c2)CC1 [Example 0872] | < 1000 | < 1000 | 
CC(C)c1cnnc(Nc2ccc3ncc(N4C[C@@H](C)O[C@@H](C)C4)cc3n2)c1 [Example 0873] | < 1000 | < 1000 | 
COC[C@@H]1CCCN1c1cnc2ccc(Nc3cc(C(C)C)cnn3)nc2c1 [Example 0874] | < 1000 | < 1000 | 
CC(C)c1cnnc(Nc2ccc3ncc(N4CCN(CC(F)(F)F)CC4)cc3n2)c1 [Example 0875] | 1000 to 10000 | < 1000 | 
CC(C)c1cnnc(Nc2ccc3ncccc3n2)c1 [Example 0876] | 1000 to 10000 | 1000 to 10000 | 
CC(C)c1cnnc(Nc2ccc3ncc(NC4CCCCC4)cc3n2)c1 [Example 0877] | < 1000 | 1000 to 10000 | 
CC(C)c1cnnc(Nc2ccc3ncc(NC4CCCC4)cc3n2)c1 [Example 0878] | < 1000 | 1000 to 10000 | 
CC(C)c1cnnc(Nc2ccc3ncc(NC4CCC4)cc3n2)c1 [Example 0879] | < 1000 | < 1000 | 
CC(C)c1cnnc(Nc2ccc3ncc(C4=CCN(C(=O)OC(C)(C)C)CC4)cc3n2)c1 [Example 0880, tert-butyl 4-(6-((5-isopropylpyridazin-3-yl)amino)-1,5-naphthyridin-3-yl)-5,6-dihydropyridine-1(2H)-carboxylate] | < 1000 | < 1000 | 

The remaining lines, values ahead:

IC50 (human PI3Kα protein) [nM] | IC50 ([1]; ERK2 enzyme assay (2)) [nM] | IC50 [1] [nM] | SMILES
1000 to 10000 | < 1000 |  | CC(C)c1cnnc(Nc2ccc3ncc(C4=CCNCC4)cc3n2)c1 [Example 0881, N-(5-isopropylpyridazin-3-yl)-7-(1,2,3,6-tetrahydropyridin-4-yl)-1,5-naphthyridine-2-amine]
< 1000 | < 1000 |  | CC(=O)N1CC=C(c2cnc3ccc(Nc4cc(C(C)C)cnn4)nc3c2)CC1 [Example 0882, 1-(4-(6-((5-isopropylpyridazin-3-yl)amino)-1,5-naphthyridin-3-yl)-5,6-dihydropyridine-1(2H)-yl)ethanone]
< 1000 | < 1000 |  | CC(C)c1cnnc(Nc2ccc3ncc(C4=CCN(C(=O)N(C)C)CC4)cc3n2)c1 [Example 0883, 4-(6-((5-Isopropylpyridazin-3-yl)amino)-1,5-naphthyridin-3-yl)-N,N-dimethyl-5,6-dihydropyridine-1(2H)-carboxamide]
1000 to 10000 | < 1000 |  | CC(C)c1cnnc(Nc2ccc3ncc(C4=CCN(C)CC4)cc3n2)c1 [Example 0884, N-(5-isopropylpyridazin-3-yl)-7-(1-methyl-1,2,3,6-tetrahydropyridin-4-yl)-1,5-naphthyridine-2-amine]
< 1000 | < 1000 |  | Cc1nn(C)cc1-c1cnc2ccc(Nc3cc(C4(C)CC4)cnn3)nc2c1 [Example 0885, 7-(1,3-Dimethyl-1H-pyrazol-4-yl)-N-(5-(1-methylcyclopropyl)pyridazin-3-yl)-1,5-naphthyridine-2-amine]
< 1000 | < 1000 |  | CC(C)c1cnnc(Nc2ccc3ncc(-c4cn(C)nc4Cl)cc3n2)c1 [Example 0886, 7-(3-Chloro-1-methyl-1H-pyrazol-4-yl)-N-(5-isopropylpyridazin-3-yl)-1,5-naphthyridine-2-amine]
< 1000 | 1000 to 10000 |  | CC(C)c1cnnc(Nc2ccc3ncc(N4CCN(C)C(=O)C4)cc3n2)c1 [Example 0887]
1000 to 10000 | 1000 to 10000 |  | CC(C)c1cnnc(Nc2ccc3ncc(NC4(C)CCC4)cc3n2)c1 [Example 0888]
10000 to 50000 | 10000 to 50000 |  | COCC1(Nc2cnc3ccc(Nc4cc(C(C)C)cnn4)nc3c2)CCC1 [Example 0889]
< 1000 | 1000 to 10000 |  | CC(C)c1cnnc(Nc2ccc3ncc(NC4CCOC4)cc3n2)c1 (stereo not drawn) [Example 0890]
1000 to 10000 | < 1000 |  | CC(C)c1cnnc(Nc2ccc3ncc(NC4CN(C(=O)OC(C)(C)C)C4)cc3n2)c1 [Example 0891]
1000 to 10000 | 1000 to 10000 |  | CC(C)c1cnnc(Nc2ccc3ncc(C4=CCN(C(=O)OC(C)(C)C)C4)cc3n2)c1 [Example 0892, tert-butyl 3-(6-((5-isopropylpyridazin-3-yl)amino)-1,5-naphthyridin-3-yl)-2,5-dihydro-1H-pyrrole-1-carboxylate]
< 1000 | < 1000 |  | CC(C)c1cnnc(Nc2ccc3ncc(N4CCC(F)(F)C4)cc3n2)c1 [Example 0893]
< 1000 | 1000 to 10000 |  | CO[C@H]1CCC[C@@H]1Nc1cnc2ccc(Nc3cc(C(C)C)cnn3)nc2c1 [Example 0894]
1000 to 10000 | < 1000 |  | COC1CCN(c2cnc3ccc(Nc4cc(C(C)C)cnn4)nc3c2)C1 (stereo not drawn) [Example 0895]
1000 to 10000 | 1000 to 10000 |  | CC(C)c1cnnc(Nc2ccc3ncc(N4CCC(C(F)(F)F)C4)cc3n2)c1 (stereo not drawn) [Example 0896]
< 1000 | < 1000 |  | CC(C)c1cnnc(Nc2ccc3ncc(N4CCC(C#N)C4)cc3n2)c1 (stereo not drawn) [Example 0897]
< 1000 | 1000 to 10000 |  | CC(C)c1cnnc(Nc2ccc3ncc(N4CCC(C(N)=O)C4)cc3n2)c1 (stereo not drawn) [Example 0898]
1000 to 10000 | 1000 to 10000 |  | CC(C)c1cnnc(Nc2ccc3ncc(N4CCC(N5CCCC5)C4)cc3n2)c1 (stereo not drawn) [Example 0899]
< 1000 | 1000 to 10000 |  | CC(C)c1cnnc(Nc2ccc3ncc(N4CCC(S(N)(=O)=O)C4)cc3n2)c1 (stereo not drawn) [Example 0900]
1000 to 10000 |  | < 1000 | CC(C)c1cnnc(Nc2ccc3ncc(N4C5CCC4COC5)cc3n2)c1 [Example 0901]
< 1000 |  | < 1000 | CC(C)c1cnnc(Nc2ccc3ncc(N4CC5CC(C4)O5)cc3n2)c1 [Example 0902]
< 1000 |  | < 1000 | CC(C)c1cnnc(Nc2ccc3ncc(N4CC5CCC(C4)O5)cc3n2)c1 [Example 0903]
< 1000 |  | 1000 to 10000 | CC(C)c1cnnc(Nc2ccc3ncc(NC4COC4)cc3n2)c1 [Example 0904]
